Data taken from patent US9884818B2, “Sulphamoylpyrrolamide derivatives and the use thereof as medicaments for the treatment of hepatitis B” (Janssen Sciences Ireland UC, priority 2013, dated 2018).

Tests used:
[1] = Cytotoxicity in HepG2 cells, Resazurin viability assay; conditions: human, HepG2 cells, HepG2 4 days CC50 (μM), incubated for 4 days, Resazurin assay
HBV [2] = test: Anti-HBV activity, HepG2.2.15 stable transfected cell line, HBV DNA from secreted virions by realtime PCR; assay type: cell-based; conditions: Hepatitis B virus, HepG2.2.15, 144 h, HepG2.2.15 cells, 6 days of treatment, HBV DNA from secreted virions; read-out: HepG2 2.15 EC50
HBV [3] = test: Anti-HBV activity, HepG2.117 inducibly HBV producing cell line (Tet-off), intracellular HBV DNA by realtime PCR; assay type: cell-based; conditions: Hepatitis B virus, HepG2.117, 72 h, HepG2.117 cells, 3 days of treatment, intracellular HBV DNA; read-out: HepG2 117 EC50

In the case of `Cn1cc(S(=O)(=O)NC2(C)COC2)cc1C(=O)Nc1ccc(F)c(Br)c1` [Compound 81], the CC50 at 4 days [1] is reported as over 25 µM, the EC50 (HBV [2]) is reported as 10 nM and the EC50 (HBV [3]) is reported as 50 nM.

In the case of `C[C@H](NS(=O)(=O)c1cc(C(=O)Nc2ccc(F)c(C#N)c2F)n(C)c1)C(F)(F)F` [Compound 196, N-(3-Cyano-2,4-difluorophenyl)-1-methyl-4-{[(1S)-2,2,2-trifluoro-1-methylethyl]sulfamoyl}-1H-pyrrole-2-carboxamide], the CC50 at 4 days [1] is reported as over 25 µM, the EC50 (HBV [2]) is reported as 100 nM and the EC50 (HBV [3]) is reported as 80 nM.

Molecule `Cn1cc(S(=O)(=O)NC2(C)CC2)cc1C(=O)Nc1ccc(F)c(Cl)c1F` [Compound 255, N-(3-chloro-2,4-difluoro-phenyl)-1-methyl-4-[(1-methylcyclopropyl)-sulfamoyl]-1H-pyrrole-2-carboxamide] has a CC50 at 4 days [1] of over 25 µM, an EC50 (HBV [2]) of 90 nM and an EC50 (HBV [3]) of 100 nM.

Molecule `CCn1cc(S(=O)(=O)N[C@H]2CCOC2)cc1C(=O)Nc1ccc(F)c(C)c1` [Compound 30, 1-ethyl-N-(4-fluoro-3-methyl-phenyl)-4-[[(3S)-tetrahydrofuran-3-yl]-sulfamoyl]pyrrole-2-carboxamide] has a CC50 at 4 days [1] of over 25 µM, an EC50 (HBV [2]) of 450 nM and an EC50 (HBV [3]) of 330 nM.

`C[C@@H](NS(=O)(=O)c1cc(C(=O)Nc2cc(F)c(F)c(Cl)c2)n(C)c1)C(F)(F)F` [Compound 60, N-(3-chloro-4,5-difluoro-phenyl)-1-methyl-4-[[(1R)-2,2,2-trifluoro-1-methyl-ethyl]sulfamoyl]pyrrole-2-carboxamide] gave a CC50 at 4 days [1] of 24.1 µM, an EC50 (HBV [2]) of 20 nM and an EC50 (HBV [3]) of 30 nM.

Work on `C[C@@H](NS(=O)(=O)c1cn(C)c(C(=O)Nc2ccc(F)c(Br)c2F)c1F)C(F)(F)F` [Compound 184, N-(3-Bromo-2,4-difluorophenyl)-3-fluoro-1-methyl-4-{[(1R)-2,2,2-trifluoro-1-methylethyl]sulfamoyl}-1H-pyrrole-2-carboxamide] yielded a CC50 at 4 days [1] of over 25 µM, an EC50 (HBV [2]) of 8 nM and an EC50 (HBV [3]) of 6 nM.

In the case of `C[C@@H](NS(=O)(=O)c1cc(C(=O)Nc2ccc(F)c(Cl)c2)n(C)c1)C(F)(F)F` [Compound 123, N-(3-Chloro-4-fluorophenyl)-1-methyl-4-{[(1R)-2,2,2-trifluoro-1-methylethyl]sulfamoyl}-1H-pyrrole-2-carboxamide], the CC50 at 4 days [1] is reported as over 25 µM, the EC50 (HBV [2]) is reported as 40 nM and the EC50 (HBV [3]) is reported as 40 nM.

Work on `Cn1cc(S(=O)(=O)N[C@H]2CCOC2)cc1C(=O)Nc1cc(F)c(F)c(F)c1` [Compound 26, 1-methyl-[[(3S)-tetrahydrofuran-3-yl]sulfamoyl]-N-(3,4,5-trifluoro-phenyl)pyrrole-2-carboxamide] yielded a CC50 at 4 days [1] of over 25 µM, an EC50 (HBV [2]) of 140 nM and an EC50 (HBV [3]) of 260 nM.

`Cc1c(F)ccc(NC(=O)c2cc(S(=O)(=O)N[C@H](C)C(F)(F)F)cn2C)c1F` [Compound 116, N-(2,4-Difluoro-3-methylphenyl)-1-methyl-4-{[(1R)-2,2,2-trifluoro-1-methylethyl]sulfamoyl}-1H-pyrrole-2-carboxamide] showed a CC50 at 4 days [1] of over 25 µM, an EC50 (HBV [2]) of 30 nM and an EC50 (HBV [3]) of 20 nM.

With `Cc1cc(NC(=O)c2c(F)c(S(=O)(=O)N[C@H](C)C(F)(F)F)cn2C)cc(C#N)c1F` [Compound 283, N-(3-cyano-4-fluoro-5-methyl-phenyl)-3-fluoro-1-methyl-4-[[(1R)-2,2,2-trifluoro-1-methyl-ethyl]sulfamoyl]pyrrole-2-carboxamide] the CC50 at 4 days [1] was over 25 µM, the EC50 (HBV [2]) was 20 nM and the EC50 (HBV [3]) was 30 nM.

Molecule `Cn1cc(S(=O)(=O)NC(C)(C)CF)cc1C(=O)Nc1ccc(F)c(C#N)c1` [Compound 249, N-(3-cyano-4-fluoro-phenyl)-4-[(2-fluoro-1,1-dimethyl-ethyl)sulfamoyl]-1-methyl-1H-pyrrole-2-carboxamide] has a CC50 at 4 days [1] of 1.7 µM, an EC50 (HBV [2]) of 70 nM and an EC50 (HBV [3]) of 180 nM.

With `C[C@@H](NS(=O)(=O)c1c(F)c(C(=O)Nc2ccc(F)c(C#N)c2)n(C)c1C#N)C(F)(F)F` [Compound 310, 5-cyano-N-(3-cyano-4-fluoro-phenyl)-3-fluoro-1-methyl-4-[[(1R)-2,2,2-trifluoro-1-methyl-ethyl]sulfamoyl]pyrrole-2-carboxamide] the CC50 at 4 days [1] was over 25 µM, the EC50 (HBV [2]) was 70 nM and the EC50 (HBV [3]) was 160 nM.
